Active and inactive are the calls of the source. The calls are words filed in the database; no cut-off is given here.
Legend:
Cannabinoid receptor 1 = Cannabinoid receptor 1 (Homo sapiens, UniProt P21554); test: Displacement of [3H]CP55940 from human CB1 receptor transfected in HEK293 cells after 90 mins by liquid scintillation spectrophotometry; assay type: cell-based
Cannabinoid receptor 2 = Cannabinoid receptor 2 (Homo sapiens, UniProt P34972); test: Displacement of [3H]CP55940 from human CB2 receptor transfected in HEK293 cells after 90 mins by liquid scintillation spectrophotometry; assay type: cell-based
MDA-MB-231 [1] = test: Antiproliferative activity against human MDA-MB-231 cells after 48 hrs by MTT assay; assay type: functional, cell-based; conditions: MDA-MB-231, 48 h
MDA-MB-231 [2] = test: Antiproliferative activity against human MDA-MB-231 cells after 72 hrs by MTT assay; assay type: functional, cell-based; conditions: MDA-MB-231, 72 h
[3] = Antiproliferative activity against human SUM149 cells after 48 hrs by MTT assay; assay type: functional, cell-based; conditions: SUM149PT
[4] = Antiproliferative activity against human SUM159 cells after 48 hrs by MTT assay; assay type: functional, cell-based; conditions: SUM-159-PT
MDA-MB-468 = test: Antiproliferative activity against human MDA-MB-468 cells after 48 hrs by MTT assay; assay type: functional, cell-based; conditions: MDA-MB-468, 48 h
HMEC = test: Antiproliferative activity against HMEC at 2 to 30 uM after 48 hrs by MTT assay; assay type: cell-based; conditions: human
MDA-MB-231 [5] = test: Antiproliferative activity against human MDA-MB-231 cells at IC50 after 48 hrs by MTT assay in presence of SR141716; assay type: functional, cell-based
MDA-MB-231 [6] = test: Antiproliferative activity against human MDA-MB-231 cells at IC50 after 48 hrs by MTT assay in presence of SR144528; assay type: functional, cell-based
MDA-MB-231 [7] = test: Antiproliferative activity against human MDA-MB-231 cells at IC50 after 48 hrs by MTT assay in presence of CDI16020046; assay type: functional, cell-based
MDA-MB-231 [8] = test: Antiproliferative activity against human MDA-MB-231 cells at IC50 after 48 hrs by MTT assay in presence of alpha-tocopherol; assay type: functional, cell-based
MDA-MB-231 [9] = test: Induction of apoptosis in human MDA-MB-231 cells assessed as increase in active caspase-3 level at IC50 after 48 hrs by Western blotting analysis; assay type: functional, cell-based
MDA-MB-231 [10] = test: Antitumor activity against human MDA-MB-231 cells xenografted in nude mouse assessed as reduction in tumor growth at 2 mg/kg, ip administered 3 times a week for 4 weeks relative to control; assay type: functional, organism-based; design: dose 2 mg/kg
MDA-MB-231 [11] = test: Antitumor activity against human MDA-MB-231 cells xenografted in nude mouse assessed as reduction in tumor volume at 2 mg/kg, ip administered 3 times a week for 4 weeks relative to control; assay type: functional, organism-based; design: dose 2 mg/kg
MDA-MB-231 [12] = test: Antitumor activity against human MDA-MB-231 cells xenografted in nude mouse assessed as reduction in tumor weight at 2 mg/kg, ip administered 3 times a week for 4 weeks relative to control; assay type: functional, organism-based; design: dose 2 mg/kg
Mus musculus [13] = test: Toxicity in nude mouse xenografted with human MDA-MB-231 cells assessed as toxicity in liver at 2 mg/kg, ip administered 3 times a week for 4 weeks; assay type: organism-based; design: dose 2 mg/kg, route intraperitoneal; conditions: in vivo, 672 h
Mus musculus [14] = test: Toxicity in nude mouse xenografted with human MDA-MB-231 cells assessed as toxicity in spleen at 2 mg/kg, ip administered 3 times a week for 4 weeks; assay type: organism-based; design: dose 2 mg/kg, route intraperitoneal; conditions: in vivo, 672 h
Mus musculus [15] = test: Toxicity in nude mouse xenografted with human MDA-MB-231 cells assessed as toxicity in lungs at 2 mg/kg, ip administered 3 times a week for 4 weeks; assay type: organism-based; design: dose 2 mg/kg, route intraperitoneal; conditions: in vivo, 672 h
Mus musculus [16] = test: Toxicity in nude mouse xenografted with human MDA-MB-231 cells assessed as toxicity in heart at 2 mg/kg, ip administered 3 times a week for 4 weeks; assay type: organism-based; design: dose 2 mg/kg, route intraperitoneal; conditions: in vivo, 672 h

Cannabinoid receptor 2, sequence (P34972 whole entry): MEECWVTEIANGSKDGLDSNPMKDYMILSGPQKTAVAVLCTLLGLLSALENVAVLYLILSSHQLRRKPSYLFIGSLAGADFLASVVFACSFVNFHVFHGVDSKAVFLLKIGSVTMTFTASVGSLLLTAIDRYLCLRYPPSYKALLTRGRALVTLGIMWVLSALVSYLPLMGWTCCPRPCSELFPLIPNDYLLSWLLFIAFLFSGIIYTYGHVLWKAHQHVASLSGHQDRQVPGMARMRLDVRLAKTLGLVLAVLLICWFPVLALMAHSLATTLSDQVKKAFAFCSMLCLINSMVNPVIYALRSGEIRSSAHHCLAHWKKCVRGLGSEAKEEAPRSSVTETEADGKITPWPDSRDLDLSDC
Cannabinoid receptor 1, sequence (P21554 whole entry): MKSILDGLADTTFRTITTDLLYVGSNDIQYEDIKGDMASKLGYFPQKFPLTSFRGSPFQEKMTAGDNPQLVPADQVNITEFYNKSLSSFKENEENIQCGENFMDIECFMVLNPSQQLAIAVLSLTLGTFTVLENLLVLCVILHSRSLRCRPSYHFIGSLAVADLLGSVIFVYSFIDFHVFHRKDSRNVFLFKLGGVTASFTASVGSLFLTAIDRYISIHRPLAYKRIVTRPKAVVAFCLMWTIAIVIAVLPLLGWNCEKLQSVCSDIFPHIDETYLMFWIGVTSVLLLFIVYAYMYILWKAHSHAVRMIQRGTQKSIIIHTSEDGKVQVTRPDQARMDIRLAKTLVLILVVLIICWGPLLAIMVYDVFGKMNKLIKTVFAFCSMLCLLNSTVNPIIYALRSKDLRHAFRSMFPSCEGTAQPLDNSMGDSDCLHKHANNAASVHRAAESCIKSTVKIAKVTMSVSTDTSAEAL

## CCCCCCC(C)(C)C1=CC2=C(C(=O)C1=O)c1nn(C)cc1C(C)(C)O2
Cannabinoid receptor 1
  Ki: > 40 µM
Cannabinoid receptor 2
  Ki: 0.597 µM
MDA-MB-231 [1]
  IC50: 5 µM

## CCCCCCC(C)(C)C1=CC2=C(C(=O)C1=O)c1[nH]ncc1C(C)(C)O2
Cannabinoid receptor 1
  Ki: > 40 µM
Cannabinoid receptor 2
  Ki: 0.398 µM
MDA-MB-231 [1]
  IC50: 8.5 µM

## CCCCCCC(C)(C)C1=CC(=O)C2=C(OC(C)(C)c3cn(C)nc32)C1=O
MDA-MB-231 [1]
  IC50: 5.8 µM

## CCCCCCC(C)(C)C1=CC(=O)C2=C(OC(C)(C)c3c[nH]nc32)C1=O
MDA-MB-231 [1]
  IC50: 8.2 µM

## CCCCCc1cc(O)c2c(c1)OC(C)(C)[C@@H]1CCC(C)=C[C@@H]21 [DRONABINOL]
MDA-MB-231 [2]
  IC50: 5 µM

## CCCCCCC(C)(C)C1=CC2=C(C(=O)C1=O)c1c(cnn1CC)C(C)(C)O2
Cannabinoid receptor 1
  Ki: > 40 µM
Cannabinoid receptor 2
  Ki: 0.529 µM
MDA-MB-231 [1]
  IC50: 2.8 µM
[3]
  IC50: 4.6 µM
[4]
  IC50: 4.1 µM
MDA-MB-468
  IC50: 17.3 µM
HMEC
  Activity: Non-toxic
MDA-MB-231 [5]
  Activity: Active
MDA-MB-231 [6]
  Activity: inactive
MDA-MB-231 [7]
  Activity: Active
MDA-MB-231 [8]
  Activity: inactive
MDA-MB-231 [9]
  Activity: Active
MDA-MB-231 [10]
  Activity: Active
MDA-MB-231 [11]
  Activity: Active
MDA-MB-231 [12]
  Activity: Active
Mus musculus [13]
  Activity: Non-toxic
Mus musculus [14]
  Activity: Non-toxic
Mus musculus [15]
  Activity: Non-toxic
Mus musculus [16]
  Activity: Non-toxic

## CCCCCCC(C)(C)C1=CC(=O)C2=C(OC(C)(C)c3cn(CC)nc32)C1=O
MDA-MB-231 [1]
  IC50: 2.5 µM

Reference: ChEMBL document CHEMBL3414526, “Selective, nontoxic CB(2) cannabinoid o-quinone with in vivo activity against triple-negative breast cancer” (J Med Chem, 2015)
